Measurements published in PMC5578959, “Selective LRRK2 kinase inhibition reduces phosphorylation of endogenous Rab10 and Rab12 in human peripheral mononuclear blood cells” (Scientific Reports, 2017).

Tests used:
[1] = tested on: Rab12-pSer106; experiment: Western Blot, cultured immune stimulated human PBMCs; format: cell-based; conditions: 100 nM, 1hr or 24 hrs
Description: PBMC were isolated from fresh blood collected within a maximal time of 4 hours after blood collection. Leucosep tubes (Greiner 227290) was added 15 ml Ficoll (GE Healthcare 17-440-03) and spun 30 s at 1000 × g. Blood was diluted 1:1 using D-PBS 1X (Gibco 14190), transfered to the Leucosep and centrifuged at 800 g for 15 min without brake. The upper layer corresponding to the diluted plasma was removed and the PBMC layer collected using a pipette or by pouring into a clean BD Falcon 50 ml tube. Cells were re-suspended and washed four times with 10 ml of D-PBS 1X (Gibco 14190) followed by centrifugation at 250 g for 10 min with brake at room temperature. The supernatant was discarded and the cells re-suspended in Complete medium equilibrated to 37 °C. The number of dead and living cells were counted on a Nucleocounter and used to calculate percent viability. […]
Cell pellets were resuspended and solubilized in 100 µL lysis buffer (50 mM Tris hydrochloride, 1 mM magnesium chloride, 1% Triton, 0.1% sodium dodecyl sulfate (SDS), pH 8.0) on ice for 20 minutes and then centrifuged at 20,000 g for 30 minutes at 4 °C. […] The proteins were visually detected by infrared imaging using Odyssey CLx (LI-COR, Nebraska, US). Membranes were scanned and band intensities were quantified using the Image Studio version 3.1.4 (LI-COR, Nebraska).

[2] = tested on: T1, BARK1; experiment: KiNativ profiling in human PBMCs; format: binding; conditions: Lys2
T1 construct: purchased ActivX Technologies (KiNativ)
Description: (§1) Compounds were shipped to ActivX Technologies (San Diego, US) where LRRK2 target engagement and broad kinase profiling was performed using KiNativ™ procedures. Live cell treatment of human peripheral blood mononuclear cells (PBMCs) at two compound concentrations (1 µM and 0.1 µM) were used to evaluate and compare in vitro target engagement and kinase selectivity, respectively (see Supplementary File 1).

[3] = tested on: T2, CaMK1d; experiment: KiNativ profiling in human PBMCs; format: binding
T2 construct: purchased ActivX Technologies (KiNativ)
Description: as §1

[4] = tested on: T3, FES; experiment: KiNativ profiling in human PBMCs; format: binding; conditions: Lys1
T3 construct: purchased ActivX Technologies (KiNativ)
Description: as §1

[5] = tested on: FYN,SRC,YES; experiment: KiNativ profiling in human PBMCs; format: binding; conditions: Activation Loop
Description: as §1

[6] = tested on: T4, IKKb; experiment: KiNativ profiling in human PBMCs; format: binding; conditions: Lys2
T4 construct: purchased ActivX Technologies (KiNativ)
Description: as §1

[7] = tested on: T5, IKKe; experiment: KiNativ profiling in human PBMCs; format: binding; conditions: Lys1
T5 construct: purchased ActivX Technologies (KiNativ)
Description: as §1

[8] = tested on: T6, IRAK1; experiment: KiNativ profiling in human PBMCs; format: binding; conditions: Lys2
T6 construct: purchased ActivX Technologies (KiNativ)
Description: as §1

[9] = tested on: T7, IRAK4; experiment: KiNativ profiling in human PBMCs; format: binding
T7 construct: purchased ActivX Technologies (KiNativ)
Description: as §1

[10] = tested on: KSR1,KSR2; experiment: KiNativ profiling in human PBMCs; format: binding; conditions: Activation Loop
Description: as §1

[11] = tested on: T8, KSR1; experiment: KiNativ profiling in human PBMCs; format: binding; conditions: 0.1µM; Activation Loop
T8 construct: purchased ActivX Technologies (KiNativ)
Description: as §1

[12] = tested on: T9, LATS1; experiment: KiNativ profiling in human PBMCs; format: binding
T9 construct: purchased ActivX Technologies (KiNativ)
Description: as §1

[13] = tested on: T10, LCK; experiment: KiNativ profiling in human PBMCs; format: binding; conditions: 1µM; Activation Loop
T10 construct: purchased ActivX Technologies (KiNativ)
Description: as §1

[14] = tested on: T11, LKB1; experiment: KiNativ profiling in human PBMCs; format: binding; conditions: Lys2
T11 construct: purchased ActivX Technologies (KiNativ)
Description: as §1

[15] = tested on: T12, LOK; experiment: KiNativ profiling in human PBMCs; format: binding
T12 construct: purchased ActivX Technologies (KiNativ)
Description: as §1

[16] = tested on: T13, LYN; experiment: KiNativ profiling in human PBMCs; format: binding
T13 construct: purchased ActivX Technologies (KiNativ)
Description: as §1

[17] = tested on: T14, MAP3K4; experiment: KiNativ profiling in human PBMCs; format: binding; conditions: Lys2
T14 construct: purchased ActivX Technologies (KiNativ)
Description: as §1

[18] = tested on: MARK1,MARK2; experiment: KiNativ profiling in human PBMCs; format: binding; conditions: Lys1
Description: as §1

[19] = tested on: MARK2,MARK3; experiment: KiNativ profiling in human PBMCs; format: binding; conditions: Lys2
Description: as §1

[20] = tested on: T15, MLKL; experiment: KiNativ profiling in human PBMCs; format: binding; conditions: Lys1
T15 construct: purchased ActivX Technologies (KiNativ)
Description: as §1

[21] = tested on: T16, MSK1 domain1; experiment: KiNativ profiling in human PBMCs; format: binding; conditions: Lys2
T16 construct: MSK1 domain1; purchased ActivX Technologies (KiNativ)
Description: as §1

[22] = tested on: MST4,YSK1; experiment: KiNativ profiling in human PBMCs; format: binding; conditions: Lys2
Description: as §1

[23] = tested on: T17, NEK1; experiment: KiNativ profiling in human PBMCs; format: binding; conditions: Lys2
T17 construct: purchased ActivX Technologies (KiNativ)
Description: as §1

[24] = tested on: T18, OSR1; experiment: KiNativ profiling in human PBMCs; format: binding; conditions: Lys2
T18 construct: purchased ActivX Technologies (KiNativ)
Description: as §1

[25] = tested on: T19, PIK3C3; experiment: KiNativ profiling in human PBMCs; format: binding; conditions: ATP
T19 construct: purchased ActivX Technologies (KiNativ)
Description: as §1

[26] = tested on: T20, PIK3CG; experiment: KiNativ profiling in human PBMCs; format: binding; conditions: ATP
T20 construct: purchased ActivX Technologies (KiNativ)
Description: as §1

[27] = tested on: T21, PIP4K2A; experiment: KiNativ profiling in human PBMCs; format: binding; conditions: ATP
T21 construct: purchased ActivX Technologies (KiNativ)
Description: as §1

[28] = tested on: T22, RIPK3; experiment: KiNativ profiling in human PBMCs; format: binding; conditions: Lys2
T22 construct: purchased ActivX Technologies (KiNativ)
Description: as §1

[29] = tested on: T23, RSK1 domain2; experiment: KiNativ profiling in human PBMCs; format: binding; conditions: Lys2
T23 construct: RSK1 domain2; purchased ActivX Technologies (KiNativ)
Description: as §1

[30] = tested on: T24, SMG1; experiment: KiNativ profiling in human PBMCs; format: binding; conditions: ATP
T24 construct: purchased ActivX Technologies (KiNativ)
Description: as §1

[31] = tested on: T25, STLK5; experiment: KiNativ profiling in human PBMCs; format: binding
T25 construct: purchased ActivX Technologies (KiNativ)
Description: as §1

[32] = tested on: T26, TLK2; experiment: KiNativ profiling in human PBMCs; format: binding; conditions: Lys2
T26 construct: purchased ActivX Technologies (KiNativ)
Description: as §1

[33] = tested on: T27, ULK3; experiment: KiNativ profiling in human PBMCs; format: binding
T27 construct: purchased ActivX Technologies (KiNativ)
Description: as §1

[34] = tested on: T28, YANK3; experiment: KiNativ profiling in human PBMCs; format: binding; conditions: Lys2
T28 construct: purchased ActivX Technologies (KiNativ)
Description: as §1

[35] = tested on: p70S6K,p70S6Kb; experiment: KiNativ profiling in human PBMCs; format: binding; conditions: ATP Loop
Description: as §1

[36] = tested on: T29, smMLCK; experiment: KiNativ profiling in human PBMCs; format: binding
T29 construct: purchased ActivX Technologies (KiNativ)
Description: as §1

`Cc1cccc(-c2cc(Nc3ccn(C)n3)nc3[nH]cc(C#N)c23)c1` [Lu AF58786] was tested, and the “inhibition of Rab12 phosphorylation (Rab12-pSer106)” value [1] was “not able to significant inhibit”, the Inhibition ([2]; 0.1µM) was 12.1% and the Inhibition ([2]; 1µM) was 6.3%. It also gave an Inhibition ([3]; 0.1µM, Lys1) of 11.8%, an Inhibition ([3]; 0.1µM, Lys2) of -11.6% and an Inhibition ([3]; 1µM, Lys1) of -4.5%. The Inhibition ([3]; 1µM, Lys2) was -6.3%, the Inhibition ([4]; 0.1µM) was 13.9% and the Inhibition ([4]; 1µM) was 9.3%. The Inhibition ([5]; 0.1µM) was -6.7%, the Inhibition ([5]; 1µM) was -2.5% and the Inhibition ([6]; 0.1µM) was 11.5%. For the same compound, the Inhibition ([6]; 1µM) was -4.3%, the Inhibition ([7]; 0.1µM) was 8.3% and the Inhibition ([7]; 1µM) was -0.117%. It also gave an Inhibition ([8]; 0.1µM) of 3.0%, an Inhibition ([8]; 1µM) of 1.7% and an Inhibition ([9]; 0.1µM, Lys1) of 16.2%. The Inhibition ([9]; 0.1µM, Lys2) was 7.0%, the Inhibition ([9]; 1µM, Lys1) was 13.3% and the Inhibition ([9]; 1µM, Lys2) was 8.9%. The Inhibition ([10]; 0.1µM) was 12.4%, the Inhibition ([10]; 1µM) was -3.6% and the Inhibition [11] was -19.0%. The Inhibition ([12]; 0.1µM, Lys1) was 5.7%, the Inhibition ([12]; 0.1µM, Lys2) was -2.7% and the Inhibition ([12]; 1µM, Lys1) was 11.6%. It also gave an Inhibition [13] of 5.7%, an Inhibition ([14]; 0.1µM) of 6.1% and an Inhibition ([14]; 1µM) of 3.9%. It also gave an Inhibition ([15]; 0.1µM, Lys1) of 13.2%, an Inhibition ([15]; 0.1µM, Lys2) of 1.8% and an Inhibition ([15]; 1µM, Lys1) of 9.9%. The Inhibition ([16]; 0.1µM, Activation Loop) was -18.7%, the Inhibition ([16]; 0.1µM, Lys1) was -21.4% and the Inhibition ([16]; 1µM, Activation Loop) was 1.0%. For the same compound, the Inhibition ([16]; 1µM, Lys1) was -4.5%, the Inhibition ([17]; 0.1µM) was 11.1% and the Inhibition ([17]; 1µM) was -2.7%. The Inhibition ([18]; 0.1µM) was 16.5%, the Inhibition ([18]; 1µM) was 7.1% and the Inhibition ([19]; 0.1µM) was -38.4%. The Inhibition ([19]; 1µM) was -36.2%, the Inhibition ([20]; 0.1µM) was -7.9% and the Inhibition ([20]; 1µM) was -7.5%. The Inhibition ([21]; 0.1µM) was 15.8%, the Inhibition ([21]; 1µM) was 1.9% and the Inhibition ([22]; 0.1µM) was 22.5%. It also gave an Inhibition ([22]; 1µM) of 4.6%, an Inhibition ([23]; 0.1µM) of -2.3% and an Inhibition ([23]; 1µM) of -14.0%. For the same compound, the Inhibition ([24]; 0.1µM) was 19.8%, the Inhibition ([24]; 1µM) was -4.1% and the Inhibition ([25]; 0.1µM) was 1.5%. It also gave an Inhibition ([25]; 1µM) of -10.0%, an Inhibition ([26]; 0.1µM) of 8.8% and an Inhibition ([26]; 1µM) of 2.1%. For the same compound, the Inhibition ([27]; 0.1µM) was -4.0%, the Inhibition ([27]; 1µM) was -14.7% and the Inhibition ([28]; 0.1µM) was 2.4%. For the same compound, the Inhibition ([28]; 1µM) was -10.9%, the Inhibition ([29]; 0.1µM) was 11.6% and the Inhibition ([29]; 1µM) was 5.6%. For the same compound, the Inhibition ([30]; 0.1 µM, DTVTIHSVGGTITILPTKTKPK) was -6.3%, the Inhibition ([30]; 0.1 µM, SYPYLFKGLEDLHLDER) was 12.6% and the Inhibition ([30]; 1 µM, DTVTIHSVGGTITILPTKTKPK) was -13.9%. It also gave an Inhibition ([30]; 1 µM, SYPYLFKGLEDLHLDER) of 4.3%, an Inhibition ([31]; 0.1µM, Activation Loop) of 3.4% and an Inhibition ([31]; 0.1µM, Lys2) of 16.0%. It also gave an Inhibition ([31]; 1µM, Activation Loop) of -4.3%, an Inhibition ([31]; 1µM, Lys2) of 19.2% and an Inhibition ([32]; 0.1µM) of 13.3%. For the same compound, the Inhibition ([32]; 1µM) was -1.2%, the Inhibition ([33]; 0.1µM, Lys1) was 3.2% and the Inhibition ([33]; 0.1µM, Lys2) was -16.6%. For the same compound, the Inhibition ([33]; 1µM, Lys1) was 2.2%, the Inhibition ([33]; 1µM, Lys2) was -15.6% and the Inhibition ([34]; 0.1µM) was 11.1%. It also gave an Inhibition ([34]; 1µM) of -8.5%, an Inhibition ([35]; 0.1µM) of 3.7% and an Inhibition ([35]; 1µM) of -2.7%. It also gave an Inhibition ([36]; 0.1µM, Lys1) of 1.6%, an Inhibition ([36]; 0.1µM, Lys2) of 3.0% and an Inhibition ([36]; 1µM, Lys1) of 18.7%. The Inhibition ([36]; 1µM, Lys2) was -2.1%.
